Reference: patent publication US8710198B2, “Caprazene as a novel compound and derivatives thereof, and caprazol as a novel compound and derivatives thereof” (Meiji Seika Pharma Co., Ltd., priority 2003, dated 2014)

What was measured:
Assay type in all cases: cell-based
[1] = test system: Micrococcus luteus FDA16; assay: Minimum growth inhibitory concentration on agar culture medium by serial dilution method (Japanese Society of Chemotherapy)
Protocol: (§1) Minimum growth inhibitory concentrations (mcg/ml) of caprazene-1′″-amide derivatives of the formula (II) against some of microorganisms were measured on an agar culture medium by a serial dilution method according to the standard method as provided by Japanese Society of Chemotherapy. For the cultivation of Mycobacterium smegmatis (one of […]), however, there was used an agar culture medium with the addition of 1% glycerine (the same applies to in the following tests).
(§2) Minimum growth inhibitory concentrations (mcg/ml) of some of the caprazene-1′″-ester derivative of the formula (III) against some of microorganisms were measured on an agar culture medium by a serial dilution method according to the standard method as provided by Japanese Society of Chemotherapy.
(§3) Minimum growth inhibitory concentrations (mcg/ml) of some of the caprazol-1′″-amide derivative of the formula (V) against a variety of microorganisms were measured on an agar medium by a serial dilution method according to the standard method as provided by Japanese Society of Chemotherapy.
as §3, with “caprazol-1′″-amide-3′″-ester” for “caprazol-1′″-amide”, “(VI)” for “(V)”
as §3, with “caprazol-3′″-ester derivative or caprazol-1′″-ester-3′″-ester” for “caprazol-1′″-amide”, “(VII)” for “(V)”
(§4) Minimum growth inhibitory concentrations (mcg/ml) of some of the derivative of the formula (VIII) against a variety of microorganisms were measured on an agar medium by a serial dilution method according to the standard method as provided by Japanese Society of Chemotherapy.

[2] = test system: Staphylococcus aureus FDA209P; assay: as above
Protocol: as §1, §2, §3
as §4, with “of the caprazol-1′″-amide-3′″-ester derivative of” for “of the derivative of”, “the formula (VI) against a” for “the formula (VIII) against a”
as §4, with “of the caprazol-3′″-ester derivative or caprazol-1′″-ester-3′″-ester derivative of” for “of the derivative of”, “the formula (VII) against a” for “the formula (VIII) against a”
as §4

[3] = test system: Mycobacterium smegmatis ATCC607; assay: Minimum growth inhibitory concentration on agar culture medium with 1% glycerine by serial dilution method; conditions: agar culture medium with the addition of 1% glycerine
Protocol: as §1, §2, §3
as §4, with “of the caprazol-1′″-amide-3′″-ester derivative of” for “of the derivative of”, “the formula (VI) against a” for “the formula (VIII) against a”
as §4, with “of the caprazol-3′″-ester derivative or caprazol-1′″-ester-3′″-ester derivative of” for “of the derivative of”, “the formula (VII) against a” for “the formula (VIII) against a”

Compound | Minimum growth inhibitory concentration (mcg/ml) against bacteria Micrococcus luteus FDA16 [1] [µg/mL] | Minimum growth inhibitory concentration (mcg/ml) against bacteria Staphylococcus aureus FDA209P [2] [µg/mL] | Minimum growth inhibitory concentration (mcg/ml) against bacteria Mycobacterium smegmatis ATCC607 [3] [µg/mL]
CCCCCCCCCCOC(=O)C1=CCN(C)C(C(OC2OC(CN)C(O)C2O)C2OC(n3ccc(=O)[nH]c3=O)C(O)C2O)C(=O)N1C (stereo not drawn) [Compound III-AA] | 1.56 | 12.5 | 12.5
CCCCCCCCC(=O)OC1CN(C)C(C(OC2OC(CN)C(O)C2O)C2OC(n3ccc(=O)[nH]c3=O)C(O)C2O)C(=O)N(C)C1C(=O)O (stereo not drawn) [Compound VII-C] | >50 | 12.5 | 0.78
CCCCCCCCC=CCCCCCCCCNC(=O)C1C(OC(=O)CCCCCCCCCCC)CN(C)C(C(OC2OC(CN)C(O)C2O)C2OC(n3ccc(=O)[nH]c3=O)C(O)C2O)C(=O)N1C (stereo not drawn) [Compound VI-R] | 3.13 | 25 | 6.25
CCCCCCCCNC(=O)C1C(OC(=O)CCCCCCCC)CN(C)C(C(OC2OC(CN)C(O)C2O)C2OC(n3ccc(=O)[nH]c3=O)C(O)C2O)C(=O)N1C (stereo not drawn) [Compound VI-C] | 6.25 | 12.5 | 6.25
CCCCCCC#CCCOC(=O)C1=CCN(C)C(C(OC2OC(CN)C(O)C2O)C2OC(n3ccc(=O)[nH]c3=O)C(O)C2O)C(=O)N1C (stereo not drawn) [Compound III-GG] | 6.25 | 50 | 25
CCCCCCCCCCCCNC(=O)C1=CCN(C)C(C(OC2OC(CN)C(O)C2O)C2OC(n3ccc(=O)[nH]c3=O)C(O)C2O)C(=O)N1C (stereo not drawn) [Compound II-G] | 0.39 | 3.13 | 0.39
CCCCCCCCCCCCCNC(=O)C1=CCN(C)C(C(OC2OC(CNC(=O)OC(C)(C)C)C(O)C2O)C2OC(n3ccc(=O)[nH]c3=O)C(O)C2O)C(=O)N1C (stereo not drawn) [Compound II-H-N-Boc] | 12.5 | 25 | 25
CCCc1ccc(NC(=O)C2=CCN(C)C(C(OC3OC(CN)C(O)C3O)C3OC(n4ccc(=O)[nH]c4=O)C(O)C3O)C(=O)N2C)cc1 (stereo not drawn) [Compound II-3] | 3.13 | 25 | 12.5
CCCCCCCCCCCCCCCCNC(=O)C1=CCN(C)C(C(OC2OC(CN)C(O)C2O)C2OC(n3ccc(=O)[nH]c3=O)C(O)C2O)C(=O)N1C (stereo not drawn) [Compound II-K] | 0.78 | 3.13 | 3.13
CCCCCCCCCCCCCCCNC(=O)C1=CCN(C)C(C(OC2OC(CNC(=O)OC(C)(C)C)C(O)C2O)C2OC(n3ccc(=O)[nH]c3=O)C(O)C2O)C(=O)N1C (stereo not drawn) [Compound II-J-N-Boc] | 12.5 | 12.5 | 25
CCCCCCCCCCCCCCCCCCCNC(=O)C1=CCN(C)C(C(OC2OC(CN)C(O)C2O)C2OC(n3ccc(=O)[nH]c3=O)C(O)C2O)C(=O)N1C (stereo not drawn) [Compound II-N] | 0.78 | 6.25 | 50
